Assay results reported in ChEMBL document CHEMBL2385071, “Synthesis and biological investigation of coumarin piperazine (piperidine) derivatives as potential multireceptor atypical antipsychotics” (J Med Chem, 2013).

Assays:
[1] = biological target: 5-hydroxytryptamine receptor 2A (Rattus norvegicus, UniProt P14842); assay: Displacement of [3H]ketanserin from 5HT2A receptor in rat cerebral cortex after 15 mins by liquid scintillation counting analysis; format: tissue-based
[2] = biological target: Voltage-gated inwardly rectifying potassium channel KCNH2 (Homo sapiens, UniProt Q12809)
Description: Inhibition of human ERG expressed in HEK293 cells by electrophysiology assay

[3] = biological target: T1, Adrenergic receptor alpha-1 (Rattus norvegicus, UniProt P15823+P23944+P43140)
T1 sequence (P15823 whole entry): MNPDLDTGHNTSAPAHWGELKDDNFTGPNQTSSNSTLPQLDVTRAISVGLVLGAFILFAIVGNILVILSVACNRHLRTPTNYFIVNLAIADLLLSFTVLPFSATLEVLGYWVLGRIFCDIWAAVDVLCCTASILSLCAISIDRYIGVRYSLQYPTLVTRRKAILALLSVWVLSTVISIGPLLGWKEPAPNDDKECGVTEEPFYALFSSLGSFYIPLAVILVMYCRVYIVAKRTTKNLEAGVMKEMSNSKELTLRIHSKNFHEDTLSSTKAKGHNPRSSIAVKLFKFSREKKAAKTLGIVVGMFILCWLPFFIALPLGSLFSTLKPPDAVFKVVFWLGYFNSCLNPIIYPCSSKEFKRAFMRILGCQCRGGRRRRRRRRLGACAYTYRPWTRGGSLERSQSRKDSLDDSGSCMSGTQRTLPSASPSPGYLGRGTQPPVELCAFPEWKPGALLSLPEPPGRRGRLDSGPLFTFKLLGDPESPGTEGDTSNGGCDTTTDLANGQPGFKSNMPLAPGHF
T1 sequence (P23944 whole entry): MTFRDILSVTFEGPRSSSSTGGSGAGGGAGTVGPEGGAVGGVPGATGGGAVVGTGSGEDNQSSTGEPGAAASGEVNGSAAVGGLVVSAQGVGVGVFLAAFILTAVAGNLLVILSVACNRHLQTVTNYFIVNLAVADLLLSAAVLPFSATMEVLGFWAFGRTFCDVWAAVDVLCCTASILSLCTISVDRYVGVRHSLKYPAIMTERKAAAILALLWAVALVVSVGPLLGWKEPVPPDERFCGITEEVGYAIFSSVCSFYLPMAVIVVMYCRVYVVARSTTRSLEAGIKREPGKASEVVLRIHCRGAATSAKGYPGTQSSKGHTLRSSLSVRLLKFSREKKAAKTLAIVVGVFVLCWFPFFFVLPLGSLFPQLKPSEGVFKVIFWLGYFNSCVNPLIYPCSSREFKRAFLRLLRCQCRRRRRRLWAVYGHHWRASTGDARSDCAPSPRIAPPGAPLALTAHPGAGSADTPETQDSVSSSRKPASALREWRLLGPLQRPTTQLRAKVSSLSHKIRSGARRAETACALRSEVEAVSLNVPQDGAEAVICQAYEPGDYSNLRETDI
T1 sequence (P43140 whole entry): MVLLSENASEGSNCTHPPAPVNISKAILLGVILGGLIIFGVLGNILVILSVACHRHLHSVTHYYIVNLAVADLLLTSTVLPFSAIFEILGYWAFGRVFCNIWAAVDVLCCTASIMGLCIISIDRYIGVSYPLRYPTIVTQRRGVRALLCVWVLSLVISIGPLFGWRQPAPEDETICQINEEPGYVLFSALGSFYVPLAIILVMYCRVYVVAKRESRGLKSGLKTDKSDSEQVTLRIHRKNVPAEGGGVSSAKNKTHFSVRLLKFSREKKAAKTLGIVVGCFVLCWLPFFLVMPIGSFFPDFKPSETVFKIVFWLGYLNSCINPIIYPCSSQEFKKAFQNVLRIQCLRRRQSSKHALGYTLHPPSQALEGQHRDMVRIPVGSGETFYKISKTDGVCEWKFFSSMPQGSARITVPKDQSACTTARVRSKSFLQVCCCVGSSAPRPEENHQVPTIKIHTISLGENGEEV
Description: Displacement of [3H]prazosin from alpha-1 adrenergic receptor in rat cerebral cortex after 60 mins by liquid scintillation counting analysis

[4] = biological target: D(3) dopamine receptor (Rattus norvegicus, UniProt P19020); assay: biochemical
[5] = biological target: T2, 5-hydroxytryptamine receptor 1A (Rattus norvegicus, UniProt P19327); assay: biochemical
T2 sequence (P19327 whole entry): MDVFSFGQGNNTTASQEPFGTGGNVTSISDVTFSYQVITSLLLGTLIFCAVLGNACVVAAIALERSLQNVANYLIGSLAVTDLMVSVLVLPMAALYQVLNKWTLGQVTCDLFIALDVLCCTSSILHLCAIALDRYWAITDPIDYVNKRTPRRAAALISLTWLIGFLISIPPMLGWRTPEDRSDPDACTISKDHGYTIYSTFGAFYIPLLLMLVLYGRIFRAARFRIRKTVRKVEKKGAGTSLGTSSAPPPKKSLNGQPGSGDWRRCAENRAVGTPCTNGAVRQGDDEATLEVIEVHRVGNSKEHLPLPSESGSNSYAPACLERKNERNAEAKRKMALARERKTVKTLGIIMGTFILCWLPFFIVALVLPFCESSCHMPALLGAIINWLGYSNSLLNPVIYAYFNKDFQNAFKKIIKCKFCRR
Description: Displacement of [3H]8-OH-DPAT from 5HT1A receptor in rat cerebral cortex after 30 mins by liquid scintillation counting analysis

[6] = Oral bioavailability in rat at 12 mg/kg by HPLC-MS analysis; format: ADME, organism-based; conditions: in vivo
[7] = Half life in rat at 12 mg/kg, po by HPLC-MS analysis; format: ADME, organism-based; parameters: dose 12 mg/kg, route oral; conditions: in vivo
[8] = Tmax in rat at 12 mg/kg, po by HPLC-MS analysis; format: ADME, organism-based; parameters: dose 12 mg/kg, route oral; conditions: in vivo
[9] = Acute toxicity in mouse assessed as mortality after 24 hrs; format: organism-based; conditions: in vivo
[10] = biological target: T3, 5-hydroxytryptamine receptor 1A (Homo sapiens) (UniProt P08908); assay: Agonist activity at 5HT1A receptor (unknown origin) expressed in CHOK1 cells coexpressing Galpha15 at 10 uM by FLIPR assay relative to control; format: cell-based; conditions: CHO-K1
T3 sequence (whole entry): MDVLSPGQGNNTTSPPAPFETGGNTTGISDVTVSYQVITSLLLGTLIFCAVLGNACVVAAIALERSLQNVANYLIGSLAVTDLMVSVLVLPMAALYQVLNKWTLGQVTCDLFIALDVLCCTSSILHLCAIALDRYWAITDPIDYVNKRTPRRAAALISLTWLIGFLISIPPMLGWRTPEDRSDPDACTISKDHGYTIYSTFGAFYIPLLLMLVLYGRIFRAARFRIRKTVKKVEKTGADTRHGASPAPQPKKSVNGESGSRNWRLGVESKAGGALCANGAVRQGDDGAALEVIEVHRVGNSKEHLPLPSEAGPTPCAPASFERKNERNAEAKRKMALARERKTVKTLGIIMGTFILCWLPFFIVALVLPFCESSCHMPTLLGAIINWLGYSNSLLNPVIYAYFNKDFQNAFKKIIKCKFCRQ

[11] = in vivo; conditions: mouse, po
Description: Therapeutic Index, ratio of ED50 for catalepsy in mouse to ED50 for antipsychotic activity in po dosed mouse assessed as reduction in apomorphine-induced climbing behavior

[12] = species: Mus musculus; assay: animal or person; conditions: po
Description: Antipsychotic activity in po dosed mouse assessed as reduction in apomorphine-induced climbing behavior administered for 30 mins prior to apomorphine-challenge measured at 10 to 30 mins post-dose

[13] = test system: Mus musculus

5-hydroxytryptamine receptor 2A, sequence (P14842 whole entry): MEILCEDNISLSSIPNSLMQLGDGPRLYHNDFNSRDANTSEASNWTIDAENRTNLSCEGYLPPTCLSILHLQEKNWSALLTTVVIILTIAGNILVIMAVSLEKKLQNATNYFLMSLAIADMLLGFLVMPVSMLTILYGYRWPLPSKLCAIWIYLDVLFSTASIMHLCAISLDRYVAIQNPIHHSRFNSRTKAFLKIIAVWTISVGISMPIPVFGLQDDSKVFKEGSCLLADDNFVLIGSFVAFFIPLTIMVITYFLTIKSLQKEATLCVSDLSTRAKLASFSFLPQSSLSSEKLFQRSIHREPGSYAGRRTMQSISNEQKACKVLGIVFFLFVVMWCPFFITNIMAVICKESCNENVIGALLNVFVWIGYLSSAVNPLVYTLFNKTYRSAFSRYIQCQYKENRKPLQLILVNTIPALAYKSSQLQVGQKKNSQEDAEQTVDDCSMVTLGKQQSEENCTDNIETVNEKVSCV
D(3) dopamine receptor, sequence (P19020 whole entry): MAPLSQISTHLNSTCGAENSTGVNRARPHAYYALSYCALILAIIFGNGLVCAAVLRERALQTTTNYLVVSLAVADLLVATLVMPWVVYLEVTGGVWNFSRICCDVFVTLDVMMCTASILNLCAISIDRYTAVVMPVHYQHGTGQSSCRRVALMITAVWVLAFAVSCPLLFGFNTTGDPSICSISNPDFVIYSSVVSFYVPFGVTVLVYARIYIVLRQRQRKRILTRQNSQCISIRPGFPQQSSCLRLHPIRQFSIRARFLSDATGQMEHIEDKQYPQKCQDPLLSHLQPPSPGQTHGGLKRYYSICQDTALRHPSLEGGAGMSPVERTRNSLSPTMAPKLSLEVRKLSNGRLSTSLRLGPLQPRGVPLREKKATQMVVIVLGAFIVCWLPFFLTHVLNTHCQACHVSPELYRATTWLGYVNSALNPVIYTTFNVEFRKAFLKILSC
Voltage-gated inwardly rectifying potassium channel KCNH2, sequence (Q12809 whole entry): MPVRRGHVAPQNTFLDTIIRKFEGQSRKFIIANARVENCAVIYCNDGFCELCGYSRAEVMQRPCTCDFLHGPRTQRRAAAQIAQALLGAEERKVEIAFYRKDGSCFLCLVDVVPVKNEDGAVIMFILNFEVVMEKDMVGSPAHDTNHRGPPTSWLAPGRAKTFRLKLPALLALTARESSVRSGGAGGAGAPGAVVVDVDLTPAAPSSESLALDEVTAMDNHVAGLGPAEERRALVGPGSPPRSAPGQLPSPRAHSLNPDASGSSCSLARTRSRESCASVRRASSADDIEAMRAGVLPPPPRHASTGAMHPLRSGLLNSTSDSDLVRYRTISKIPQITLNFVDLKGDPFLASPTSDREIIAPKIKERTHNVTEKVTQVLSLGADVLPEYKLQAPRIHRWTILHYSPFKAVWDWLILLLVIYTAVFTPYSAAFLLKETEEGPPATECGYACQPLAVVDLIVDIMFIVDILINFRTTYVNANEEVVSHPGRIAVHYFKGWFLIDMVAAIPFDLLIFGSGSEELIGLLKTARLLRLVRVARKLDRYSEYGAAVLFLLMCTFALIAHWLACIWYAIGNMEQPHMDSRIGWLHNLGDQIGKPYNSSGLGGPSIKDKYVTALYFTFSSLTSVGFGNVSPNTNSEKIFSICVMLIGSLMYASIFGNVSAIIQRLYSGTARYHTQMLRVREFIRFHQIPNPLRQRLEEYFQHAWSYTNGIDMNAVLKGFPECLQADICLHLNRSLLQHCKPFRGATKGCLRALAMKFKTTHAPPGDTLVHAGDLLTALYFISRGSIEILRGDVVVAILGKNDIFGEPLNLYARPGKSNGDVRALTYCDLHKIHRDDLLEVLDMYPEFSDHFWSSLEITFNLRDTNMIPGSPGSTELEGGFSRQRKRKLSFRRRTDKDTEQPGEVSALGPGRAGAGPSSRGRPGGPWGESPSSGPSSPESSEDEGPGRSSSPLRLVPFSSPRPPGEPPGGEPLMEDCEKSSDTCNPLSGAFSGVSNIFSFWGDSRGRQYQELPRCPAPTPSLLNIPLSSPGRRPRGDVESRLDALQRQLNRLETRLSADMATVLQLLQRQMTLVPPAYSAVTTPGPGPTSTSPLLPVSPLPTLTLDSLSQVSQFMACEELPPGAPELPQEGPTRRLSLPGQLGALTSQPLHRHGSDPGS

Row | Ki [1] [nM] | Ki [3] [nM] | Ki [4] [nM] | Ki [5] [nM] | SMILES | IC50 [2] [nM] | bioavailability [6] [%] | half-life [7] [h] | Tmax [8] [h] | LD50 at 24 h [9] [mg/kg] | Activity [10] [%] | selectivity ratio [11] | ED50 [12] [mg/kg] | Activity [13]
1 | 8.4 | 15.8 | 71.3 | 3.5 | Cc1cc(=O)oc2cc(OCCCCN3CCC(c4noc5cc(F)ccc45)CC3)ccc12 | 159 |  |  |  |  |  |  |  | 
2 | 0.3 | 139.2 | 30.6 | 16.7 | Cc1c(C)c2ccc(OCCCCN3CCC(c4noc5cc(F)ccc45)CC3)cc2oc1=O | 195 |  |  |  |  |  |  |  | 
3 | 0.9 | 121.2 | 13.6 | 12.9 | Cc1cc(=O)oc2c(C)c(OCCCCN3CCC(c4noc5cc(F)ccc45)CC3)ccc12 | 226 |  |  |  |  |  |  |  | 
4 | 9.2 | > 10000 | 72.7 | 12.7 | O=c1cc(-c2ccccc2)c2ccc(OCCCCN3CCC(c4noc5cc(F)ccc45)CC3)cc2o1 |  |  |  |  |  |  |  |  | 
5 | 8 | 6.1 | 4.8 | 0.012 | COc1ccccc1N1CCN(CCCCOc2ccc3c(C)cc(=O)oc3c2)CC1 | 31 |  |  |  |  |  |  |  | 

Row | SMILES | Ki [1] [nM] | Ki [3] [nM] | Ki [4] [nM] | Ki [5] [nM] | IC50 [2] [nM] | bioavailability [6] [%] | half-life [7] [h] | Tmax [8] [h] | LD50 at 24 h [9] [mg/kg] | Activity [10] [%] | selectivity ratio [11] | ED50 [12] [mg/kg] | Activity [13]
6 | Cc1cc(=O)oc2c(Cl)c(OCCCCN3CCC(c4noc5cc(F)ccc45)CC3)ccc12 | 0.3 | 2569.2 | 4.3 | 3.3 | 1590 | 32 | 6.7 | 3 | > 2000 | 9.9 | 215 | 0.14 | Dose-dependent effect
